The values below are quoted from earlier work in US20230255882A1, “LONG-LASTING RESORBABLE SUBCUTANEOUS IMPLANT WITH SUSTAINED RELEASE OF PRE-CONCENTRATED PHARMACOLOGICALLY ACTIVE SUBSTANCE IN POLYMER FOR THE TREATMENT OF PARKINSONS DISEASE” (priority 2020, published 2023).

The subject of the data set is Parkinson's disease. The conditions noted are these: intramuscular injection, 25 mg twice a week.

SMILES strings stand for the structures.

In the case of `NC(=O)C1=CN([C@@H]2O[C@H](COP(=O)(O)OP(=O)(O)OC[C@H]3O[C@@H](n4cnc5c(N)ncnc54)[C@H](OP(=O)(O)O)[C@@H]3O)[C@@H](O)[C@H]2O)C=CC1` [NADPH], the motor symptoms entry was “significant improvement in motor symptoms”.
